Measurements as given in a melting point compilation (Tetko et al.; mined from patent text by program, amines drawn as free bases though some values may be those of a salt).

Point of comparison: O=C(Oc1cc(-c2ccccc2)c2ccccc2n1)N1CCCCC1, melting point 85 °C. Against it:
- C[N+]([O-])=C(Cn1ccnc1)c1cccs1 — higher, 162 to 164 °C
- CCCCCCCCNC(=O)OC1CCN(C(=O)Oc2ccc(Oc3ccccc3)cc2)CC1 — lower, 73 to 75 °C
- CC(=O)c1ccc(-c2ccc(C(=O)NCCCCN3CCC(c4ccc5c(c4O)CCCC5)CC3)cc2)cc1 — higher, 180 to 185 °C
- CN(Cc1nc(-c2cc(C(C)(C)C)c(O)c(C(C)(C)C)c2)cn1COCC[Si](C)(C)C)c1ccc([N+](=O)[O-])cc1 — higher, 149 to 151 °C
- O=[N+]([O-])c1c(Nc2ccon2)cnc2c1COCC2 — higher, 143 to 145 °C
- Cn1cncc1C(O)(c1ccc(Cl)cc1)c1ccc2c(c1)C(c1cccc(Cl)c1)OCC(=O)N2 (stereo unspecified) — higher, 260 °C
- COc1ccc(-c2c3c(cc4ccc(OC(C)C)cc24)C(=O)NC3)cc1 — higher, 212 to 215 °C
- OC(CNCCCCCCOCCCc1ccc(N2CCCCC2)cc1)c1ccc2c(n1)COC(c1ccccc1)O2 (stereo unspecified) — lower, 75 to 76 °C
- CNc1c(F)cc2c(=O)c(C(=O)O)cn(-c3nc(N)c(F)cc3F)c2c1Cl — higher, 251 to 253 °C
- Cc1nnc2n1-c1ccccc1C(c1ccc(Cl)cc1)=NN2Cc1ccc(NS(C)(=O)=O)cc1 — higher, 273 to 275 °C
- CC(C)(C)OC(=O)N1C[C@H](n2ccc(NC(=O)c3ccccc3)nc2=O)C[C@@H]1C(=O)OC(c1ccccc1)c1ccccc1 — higher, 133 to 135 °C
- COc1cc(-c2cc(=O)c3ccccc3o2)cc([N+](=O)[O-])c1OC — higher, 216 to 217 °C
- c1csc(-c2nc(COc3ccc(CCCn4ccnc4)cc3)co2)c1 — not separable, 84 to 85 °C
- O=C(Oc1ccc(Cl)cc1)c1c2ccccc2nc2ccccc12 — higher, 170 °C
- CN1CCN(c2ccccc2C=C2SCCN(c3ccc(Cl)c(Cl)c3)C2=O)CC1 — higher, 155 to 157 °C
- O=C(O)CCCCCCCCCCCCC(=O)OCc1ccccc1 — lower, 73.5 to 74 °C
- CN1CCN(c2ccc(Nc3ncc4c(n3)S/C(=C/c3ccc(O)cc3)C(=O)N4)cc2)CC1 — higher, 312 to 314 °C
- O=C(c1ccc(-c2cnc3c(c2)N(Cc2c(Cl)cccc2Cl)C(=O)CN3)cc1)N1CCC(N2CCCC2)CC1 — higher, 199 °C
- CCOP(=O)(NC(=O)c1cc(=O)c2ccccc2o1)OCC — higher, 182 to 183 °C
- CCc1cccc(NC(=O)NC2N=C(c3ccccc3F)c3ccccc3N(CC(=O)N3CC4CCC(CC4)C3)C2=O)c1 (racemic) — higher, 185 to 192 °C
- CCON=C(C)C1CCC(=O)CC1=O (stereo unspecified) — higher, 105 to 112 °C
- CCC1(CC(O)(CBr)c2ccccc2)C(=O)c2ccccc2C1=O (stereo unspecified) — higher, 89 to 92 °C
- NS(=O)(=O)Oc1ccccc1C(=O)O — higher, 139 to 140 °C
- CCN(CC)CCCC1CCCCN1C(=O)N1c2ccccc2C(=O)Nc2cccnc21 (stereo unspecified) — higher, 125 to 128 °C
- OC(C(c1cccc(Cl)c1)n1ccnc1)C12CC3CC(CC(C3)C1)C2 (stereo unspecified) — higher, 115 °C
- O=C(CBr)c1ccc(-c2ccc([N+](=O)[O-])cc2)o1 — higher, 153 to 162 °C
- Cc1nc2c(O[C@@H]3c4ccccc4C[C@H]3O)cccn2c1N=O (relative stereo) — higher, 178 to 179 °C
- CCOC(=O)c1cnn(-c2ccc(OCC(C)(C)COC(=O)c3ccccc3)c(C#N)c2)c1 — higher, 112 to 114 °C
- N#Cc1ccc(Cc2ccc(-c3ccc(C#N)cn3)o2)cc1 — higher, 204 to 206 °C
- CN(C)CC#C[C@H]1CC[C@H](CN(C)c2ncc(Br)cn2)CC1 — lower, 71 to 72 °C
- CCCCCCO[C@H](C)C(=O)Oc1ccc(C(=O)O)cc1 — lower, 67 to 72 °C
- COC(=O)C(=O)c1ccc(OCCOCCOc2ccccc2)cc1 — lower, 75 to 76 °C
- COC(=O)CCc1oc(Cl)nc1-c1ccc(Cl)cc1 — lower, 71 to 72 °C
- COC(=O)c1nc(-c2ccc(Cl)cc2)cc(N(C)C)c1N — higher, 153 to 154 °C
- CC(C)(C)c1csc(NC(=O)c2ccn3c(=O)c(/C=C/C(=O)O)c(N4CCC(OC(=O)NCCO)CC4)nc3c2)n1 — higher, 231 to 234 °C
- N#Cc1ccc2nc(C(=O)NCc3cccc(NC(=O)CCc4nc[nH]n4)c3)[nH]c(=O)c2c1 — higher, 298 to 301 °C
- N=C(N)Nc1nc(CCCCNC(N)=N[N+](=O)[O-])cs1 — higher, 180 to 181 °C
- C1=Cc2cccnc2Nc2ncccc21 — higher, 126 to 129 °C
- CC(C)Sc1cc2c(cc1Cl)N=C(C(N)=O)NS2(=O)=O — higher, 279 to 280 °C
- COc1cc(-c2ccccc2)on1 — lower, 69 to 71 °C
- CC(C)Cc1ccc2oc(=O)c(=O)oc2c1 — higher, 92 to 97 °C
- CCCCOCCOc1ccc(-c2cc(/C=C(\C)C(=O)O)c3c(c2)CCCN3C)cc1 — higher, 133 to 134 °C
- CCOc1cn(C)c2nc3cc(F)c(F)cc3cc2c1=O — higher, > 270 °C
- Cc1ccc(C)c(C(CO)c2ccc(C(C)C)cc2)c1O (stereo unspecified) — higher, 88 to 89 °C
- CCC(O)=C1SC(=S)N(c2ccc(Cl)cc2)C1=O — higher, 145 to 149 °C
- Cc1cnc2c(c1)S(=O)(=O)N(Cc1ccccc1)C2=O — higher, 167 to 170 °C
- CC1(C)CC(NS(C)(=O)=O)c2ccccc21 (stereo unspecified) — higher, 117 to 119 °C
- C=CCN1C2CCC1C1CCC2N1C(c1ccc(C(=O)N(C)C)cc1)c1cccc(O)c1 (stereo unspecified) — higher, 99 to 101 °C
- CON=C(C(=O)OC)c1ccccc1/C=C(\Cl)C(=O)O — higher, 107 to 109 °C
- O=c1[nH]c2ccc(-c3ncc[nH]3)cc2[nH]c1=O — higher, > 300 °C
- CC(C)CN(Cc1nc(-c2ncn3c2CN(C)C(=O)c2ccccc2-3)no1)CC(C)C — higher, 170 to 172 °C
- O=c1[nH]c(-c2ccccn2)c(I)c(=O)n1-c1ccc(OC(F)(F)F)cc1 — higher, 215 to 217 °C
- CCOC(=O)C1C(OC)C(=O)N1c1ccc(OC)cc1 (stereo unspecified) — higher, 116 to 118 °C
- O=C(NCC1(c2ccccc2)CCCCC1)Nc1ccc(Cl)cc1 — higher, 164 to 166 °C
- CCOc1c(Cl)ccc(-c2cc(N)c(Cl)c(C(=O)OC)n2)c1F — higher, 154 to 156 °C
- N#CC1=C2C=CC=c3ccccc3=C2CC=C1 — higher, 109 to 111 °C
- COc1cc2cc(C(N)=O)cnc2cc1F — higher, 231 °C
- COCCOCN1C(C)=C(C(=O)O)[C@@H](c2cccc([N+](=O)[O-])c2)C(C(=O)OC)=C1C — higher, 124 °C
- CN(C)S(=O)(=O)c1cc2c(c(Cl)c1Cl)OC(CO)C2 (stereo unspecified) — higher, 133 to 134 °C
- COc1ccc2c(c1)Sc1c(cc(OC)c(OC)c1Br)N2 — higher, 223 to 225 °C
- O=C1NC(=O)C(Cc2ccc(C(=O)COc3ccccc3)cc2)S1 (stereo unspecified) — higher, 170 to 174 °C
- CCN1CCN(CC)c2cc(Nc3nc(Cl)ncc3Cl)ccc2C1=O — lower, 71 to 74 °C
- Brc1ccc2c(c1)C(c1ccccn1)=NCc1nnc(Br)n1-2 — higher, 236 to 238 °C
- COc1ccc(C(=O)Oc2ccc(O)cc2)cc1C12CC3CC(CC(C3)C1)C2 — higher, 236 to 237 °C
- O=C1OC(CCC#Cc2ccccc2)C(O)=C1O (stereo unspecified) — higher, 145 to 146 °C
- O=C1Nc2ccc([N+](=O)[O-])cc2Cn2nnnc21 — higher, 276 to 279 °C
- CCCCCN1C(=O)C2(COc3cc4nc(C)sc4cc32)c2ccccc21 (stereo unspecified) — higher, 105 to 107 °C
- CCOC(=O)/C=C/c1cn(Cc2ccc(OCc3nc(-c4ccco4)oc3C)cc2)nc1OCc1ccc(OCc2nc(-c3ccco3)oc2C)cc1 — higher, 138 to 139 °C
- CN1Cc2ccccc2C(Oc2ccc(C#N)cc2)C1 (stereo unspecified) — higher, 131 to 132 °C
- CC(C)(C)NCC(O)c1cc(F)c(N)cc1F (stereo unspecified) — higher, 115 to 116 °C
